# Test results from patent publication US20140023611A1 (priority 2010, published 2014).
# What was measured:
# human NaP2b (SLC34A2) = target: T1, human NaP2b (SLC34A2) (Homo sapiens, UniProt O95436); test: Inhibition of NaP2b-mediated Pi (33P) uptake in transfected HEK293 cells, human NaP2b; assay type: cell-based; settings: read-out: pIC50 range for human NaP2b (converted)
# T1 construct: host or cells: HEK293
# T1 sequence (O95436 1-690): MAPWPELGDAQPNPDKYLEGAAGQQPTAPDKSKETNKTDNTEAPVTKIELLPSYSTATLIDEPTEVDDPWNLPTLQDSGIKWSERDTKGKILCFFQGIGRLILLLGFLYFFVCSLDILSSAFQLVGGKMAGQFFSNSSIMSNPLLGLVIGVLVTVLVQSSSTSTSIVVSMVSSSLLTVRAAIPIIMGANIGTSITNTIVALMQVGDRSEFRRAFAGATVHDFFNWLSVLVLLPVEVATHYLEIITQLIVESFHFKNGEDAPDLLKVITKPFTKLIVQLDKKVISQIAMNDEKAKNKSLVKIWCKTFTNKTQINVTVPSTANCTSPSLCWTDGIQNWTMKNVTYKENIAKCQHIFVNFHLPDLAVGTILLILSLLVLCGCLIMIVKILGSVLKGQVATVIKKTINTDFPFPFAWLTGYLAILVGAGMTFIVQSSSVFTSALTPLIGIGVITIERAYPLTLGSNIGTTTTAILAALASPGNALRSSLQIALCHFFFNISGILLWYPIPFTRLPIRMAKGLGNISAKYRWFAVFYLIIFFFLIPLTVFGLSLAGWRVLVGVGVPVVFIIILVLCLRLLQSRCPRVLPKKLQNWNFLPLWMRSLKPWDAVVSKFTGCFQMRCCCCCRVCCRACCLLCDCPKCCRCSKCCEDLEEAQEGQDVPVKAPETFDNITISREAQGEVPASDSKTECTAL
# In short: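 Uptake of 33P-phosphate (100 uM KH2PO4 carrier, sodium vs choline buffer, pH 7.4) measured after 3-30 min at room temperature, with test compound at twelve concentrations from 0.1 nM to 30 uM in duplicate. Cells were HEK293 transfected with mutated human NaP2b (Thr insertion after 37, N39D) and treated with a PiT-silencing agent. pIC50 values from scintillation counts.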
# rat NaP2b (SLC34A2) = target: T2, rat NaP2b (SLC34A2) (Rattus norvegicus, UniProt Q9JJ09); test: Inhibition of NaP2b-mediated Pi (33P) uptake in transfected HEK293 cells, rat NaP2b; assay type: cell-based; settings: 33P Pi uptake, 0.1 mM phosphate, value given as pIC50 range
# T2 construct: host or cells: HEK293
# T2 sequence (Q9JJ09 1-695): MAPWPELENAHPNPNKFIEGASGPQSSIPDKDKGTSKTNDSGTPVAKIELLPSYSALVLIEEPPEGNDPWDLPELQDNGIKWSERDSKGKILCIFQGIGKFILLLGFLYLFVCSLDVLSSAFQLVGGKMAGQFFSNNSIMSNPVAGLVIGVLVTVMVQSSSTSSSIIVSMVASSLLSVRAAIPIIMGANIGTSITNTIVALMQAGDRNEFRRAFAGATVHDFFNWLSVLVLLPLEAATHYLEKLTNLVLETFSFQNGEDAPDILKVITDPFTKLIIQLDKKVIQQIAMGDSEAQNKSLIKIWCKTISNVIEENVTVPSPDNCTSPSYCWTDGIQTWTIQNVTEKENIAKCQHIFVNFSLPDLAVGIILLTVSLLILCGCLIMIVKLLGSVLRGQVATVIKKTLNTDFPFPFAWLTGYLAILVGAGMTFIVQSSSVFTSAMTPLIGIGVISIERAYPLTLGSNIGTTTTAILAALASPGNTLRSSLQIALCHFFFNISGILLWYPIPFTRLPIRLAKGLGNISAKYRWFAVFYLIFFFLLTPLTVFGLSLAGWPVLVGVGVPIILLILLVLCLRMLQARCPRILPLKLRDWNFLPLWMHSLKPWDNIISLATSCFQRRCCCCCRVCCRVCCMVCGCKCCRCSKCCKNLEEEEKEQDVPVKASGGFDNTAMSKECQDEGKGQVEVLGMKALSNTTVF
# In short: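 The cells transiently expressed NaP2b after Lipofectamine transfection. Each compound was run in duplicate over twelve concentrations, 0.1 nM–30 uM.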
SMILES,IC50 (human NaP2b (SLC34A2)) [nM],IC50 (rat NaP2b (SLC34A2)) [nM]
"CCN(CC)c1ccc(NC(=O)c2cccc(CSCCOCCOCCOCCOCCC(=O)NC(CO)CO)c2)c(-c2cc(C(=O)N[C@H]3CCCc4ccccc43)ccn2)c1 [Example 159, (S)-2-(5-(diethylamino)-2-(3-(20-hydroxy-19-(hydroxymethyl)-17-oxo-5,8,11,14-tetraoxa-2-thia-18-azaicosyl)benzamido)phenyl)-N-(1,2,3,4-tetrahydronaphthalen-1-yl)isonicotinamide]",< 1000,< 1000
"CCN(CC)c1ccc(NC(=O)c2cccc(C#CCOCCOCCOCCOCCOCCOCCOCCOCCOC)c2)c(-c2cc(C(=O)NCc3cccc(C(F)(F)F)c3)ccn2)c1 [Example 268, 2-(2-(3-(2,5,8,11,14,17,20,23,26-nonaoxanonacos-28-yn-29-yl)benzamido)-5-(diethylamino)phenyl)-N-(3-(trifluoromethyl)benzyl)isonicotinamide]",< 1000,< 1000
"CCN(CC)c1ccc(NC(=O)c2cccc(C(=O)N(C)CCN(CCOC)CCOCCOCCOCCC(=O)NC(C)(C)C)c2)c(-c2cc(C(=O)NCc3cccc(C(F)(F)F)c3)ccn2)c1 [Example 337, N^1-(4-(Diethylamino)-2-(4-(3-(trifluoromethyl)benzylcarbamoyl)pyridin-2-yl)phenyl)-N3-(3-(2-methoxyethyl)-17,17-dimethyl-15-oxo-6,9,12-trioxa-3,16-diazaoctadecyl)-N^3-methylisophthalamide]",1000 to 7940,1000 to 7940
"CN(CCN1CCOC[C@H]1C(=O)N(C)CCOCCOCCOCCC(=O)O)C(=O)c1cccc(C(=O)Nc2ccc(N3CCCCC3)cc2-c2cc(C(=O)N[C@H]3CCCc4ccccc43)ccn2)c1 [Example 243, 2-methyl-1-((S)-4-(2-(N-methyl-3-(4-(piperidin-1-yl)-2-(4-((S)-1,2,3,4-tetrahydronaphthalen-1-ylcarbamoyl)pyridin-2-yl)phenylcarbamoyl)benzamido)ethyl)morpholin-3-yl)-1-oxo-5,8,11-trioxa-2-azatetradecan-14-oic acid]",10000 to 31600,10000 to 31600
"CN(CCN1CCOC[C@H]1C(=O)N(C)CCOCCOCCOCCC(=O)OC(C)(C)C)C(=O)c1cccc(C(=O)Nc2ccc(N3CCCCC3)cc2-c2cc(C(=O)N[C@H]3CCCc4ccccc43)ccn2)c1 [Example 242, tert-butyl 2-methyl-1-((S)-4-(2-(N-methyl-3-(4-(piperidin-1-yl)-2-(4-((S)-1,2,3,4-tetrahydronaphthalen-1-ylcarbamoyl)pyridin-2-yl)phenylcarbamoyl)benzamido)ethyl)morpholin-3-yl)-1-oxo-5,8,11-trioxa-2-azatetradecan-14-oate]",< 1000,< 1000

# Next, values leading:
IC50 (human NaP2b (SLC34A2)) [nM],IC50 (rat NaP2b (SLC34A2)) [nM],SMILES
1000 to 7940,1000 to 7940,"CCN(CC)c1ccc(NC(=O)c2cccc(C(=O)N(C)CCN3CCN(C(=O)COCCOCCOCCOCCOCCOCCOCCOC)CC3)c2)c(-c2cc(C(=O)N[C@H]3CCCc4ccccc43)ccn2)c1 [Example 227, (S)—N1-(2-(4-2,5,8,11,14,17,20,23-octaoxapentacosanepiperazin-1-yl)ethyl)-N3-(4-(diethylamino)-2-(4-(1,2,3,4-tetrahydronaphthalen-1-ylcarbamoyl)pyridin-2-yl)phenyl)-N1-methylisophthalamide]"
< 1000,< 1000,"CCN(CC)c1ccc(NC(=O)c2cccc(C(=O)N(C)CCN3CCN(C(=O)N(C)CCOCCOCCOCCC(=O)OC(C)(C)C)CC3)c2)c(-c2cc(C(=O)N[C@H]3CCCc4ccccc43)ccn2)c1 [Example 212, tert-butyl 3-[2-(2-{2-[(4-{2-[1-(3-{[4-(diethylamino)-2-(4-{[(1S)-1,2,3,4-tetrahydronaphthalen-1-yl]carbamoyl}pyridin-2-yl)phenyl]carbamoyl}phenyl)-N-methylformamido]ethyl}piperazin-1-yl)carbonyl(methyl)amino]ethoxy}ethoxy)ethoxy]propanoate]"
